Earlier results in patent US7759386B2, “Pharmaceutical compositions of estrogenic agents” (Wyeth LLC, priority 2000, dated 2010).

Conditions: after 1 year of storage; best antioxidant system described; solid state, tablets

C=C1CC[C@H](O)C/C1=C/C=C1\CCC[C@]2(C)[C@@H]([C@H](C)CCCC(C)C)CC[C@@H]12 [cholecalciferol]
original content remaining: 87.6%
